The text below walks through data of PMC6790002, “Synthesis and Biological Evaluation of Structurally Varied 5′-/6′-Isonucleosides and Theobromine-Containing N-Isonucleosidyl Derivatives” (Pharmaceuticals, 2019).

Test [1] has as its target T1, butyrylcholinesterase (BChE, from equine serum) (Equus caballus, UniProt P81908).
T1 construct: Butyrylcholinesterase (from equine serum) was bought from Sigma; purchased Sigma; host or cells: equine serum
The experiment in a line: Butyrylcholinesterase inhibition, Ellman's method. Format: biochemical. The conditions noted are these: for % Inhibition of BChE / inhibition at 50 µM: at 50 µM compound. (In general: In Ellman's method for cholinesterases, released thiocholine reacts with DTNB.)

The target of test [2] is T2, acetylcholinesterase (AChE, from Electrophorus electricus) (Electrophorus electricus, UniProt O42275).
T2 construct: purchased Fluka
T2 sequence (O42275 24-633): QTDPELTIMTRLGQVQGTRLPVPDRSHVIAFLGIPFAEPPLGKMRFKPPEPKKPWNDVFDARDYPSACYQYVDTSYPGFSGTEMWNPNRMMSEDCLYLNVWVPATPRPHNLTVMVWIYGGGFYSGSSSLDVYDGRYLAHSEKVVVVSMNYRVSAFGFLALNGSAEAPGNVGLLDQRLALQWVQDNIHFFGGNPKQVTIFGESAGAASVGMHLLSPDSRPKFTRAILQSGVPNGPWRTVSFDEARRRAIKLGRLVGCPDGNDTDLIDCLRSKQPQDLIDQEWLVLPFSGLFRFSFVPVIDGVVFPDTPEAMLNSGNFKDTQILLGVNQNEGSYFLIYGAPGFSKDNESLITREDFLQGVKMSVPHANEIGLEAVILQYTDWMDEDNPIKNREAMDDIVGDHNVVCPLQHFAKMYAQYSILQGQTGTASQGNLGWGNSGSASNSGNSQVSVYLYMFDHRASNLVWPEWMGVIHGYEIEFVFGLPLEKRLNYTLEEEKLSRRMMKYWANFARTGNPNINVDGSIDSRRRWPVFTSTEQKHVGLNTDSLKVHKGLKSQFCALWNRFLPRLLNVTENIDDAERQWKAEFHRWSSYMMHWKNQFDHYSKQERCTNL
The experiment in a line: Acetylcholinesterase inhibition, Ellman's method. Format: biochemical. As to conditions: for % Inhibition of AChE / inhibition at 50 µM: at 50 µM compound.

Test [3] deals with acetylcholinesterase (AChE). The conditions noted are these: Figure 1, cited from earlier work.

Several values for one entry are separate records, joined by “and”; a condition that tells them apart may be missing. Identical values can stand only once. Counter-ions that a name gives are not always drawn. Like-named read-outs stand apart in the source and are kept apart here.

T1 sequence (P81908 whole entry): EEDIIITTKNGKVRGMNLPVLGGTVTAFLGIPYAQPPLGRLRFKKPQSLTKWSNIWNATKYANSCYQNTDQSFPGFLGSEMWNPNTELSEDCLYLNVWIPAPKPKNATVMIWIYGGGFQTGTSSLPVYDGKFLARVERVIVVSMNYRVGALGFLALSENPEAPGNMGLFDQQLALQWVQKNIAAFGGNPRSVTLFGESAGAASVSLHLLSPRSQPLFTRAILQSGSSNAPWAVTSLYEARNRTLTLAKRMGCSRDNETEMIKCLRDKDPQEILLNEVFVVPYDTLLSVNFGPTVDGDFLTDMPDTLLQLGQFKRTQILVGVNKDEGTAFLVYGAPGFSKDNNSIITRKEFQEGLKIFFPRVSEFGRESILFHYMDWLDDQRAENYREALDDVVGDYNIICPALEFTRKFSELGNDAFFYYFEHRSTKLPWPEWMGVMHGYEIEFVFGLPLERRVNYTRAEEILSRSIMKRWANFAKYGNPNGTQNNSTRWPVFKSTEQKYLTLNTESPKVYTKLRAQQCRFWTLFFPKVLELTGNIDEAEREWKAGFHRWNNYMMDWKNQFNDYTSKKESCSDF

As to “1-(5-Deoxy-3-O-dodecyl-α-D-xylofuranos-5-yl)-3,7-dimethyl-3,7-dihydro-1H-purine-2,6-dione [Compound 18]”, in test [1], the “% Inhibition of BChE” value is recorded as 19.6%. In test [2], the “% Inhibition of AChE” value turned out to be 14.5%.
For the molecule `CO[C@H]1O[C@H](Cn2c(=O)c3c(ncn3C)n(C)c2=O)[C@@H](OC(C)=O)[C@H](OC(C)=O)[C@H]1OC(C)=O` [A], the “inhibition of AChE (in words)” value in test [3] (theobromine 6′-isonucleoside) is listed as “good inhibitory effect”.
Turning to `CC(=O)O[C@H]1C(NS(C)(=O)=O)O[C@H](Cn2c(=O)c3c(ncn3C)n(C)c2=O)[C@@H]1OCc1ccccc1` (some centres unmarked) [B], the “inhibition of AChE (in words)” value in test [3] (N-isonucleosidyl sulfonamide) was “micromolar and selective inhibition of AChE”.
A word on the inhibition: it is the drop in the measured response relative to a control, in per cent. A lower inhibition goes with a response near the control. Consider `CCCCCCCCCCCCO[C@@H]1[C@H]2OC(C)(C)O[C@H]2O[C@@H]1Cn1c(=O)c2c(ncn2C)n(C)c1=O` [Compound 3, 1-(5-Deoxy-3-O-dodecyl-1,2-O-isopropylidene-α-D-xylofuranos-5-yl)-3,7-dimethyl-3,7-dihydro-1H-purine-2,6-dione], for which the values for the inhibition at 50 µM in test [1] and in test [2] were 11.7% and 13.8%, respectively.
In the same order, the values of `CCCCCCCCCCCCO[C@@H]1[C@H]2OC(C)(C)O[C@H]2O[C@@H]1Cn1cnc2c(N)ncnc21` [Compound 4, 9-(5-Deoxy-3-O-dodecyl-1,2-O-isopropylidene-α-D-xylofuranos-5-yl)adenine] are 11.9% and 16.3%.
For `CCCCCCCCCCCCO[C@@H]1[C@H]2OC(C)(C)O[C@H]2O[C@@H]1Cn1cnc2c(Cl)nc(NC(C)=O)nc21` [Compound 5, 2-Acetamido-6-chloro-9-(5-deoxy-3-O-dodecyl-1,2-O-isopropylidene-α-D-xylofuranos-5-yl)purine], in that order: 32.5% and 25.3%.
With `CCCCCCCCCCCCO[C@@H]1[C@H]2OC(C)(C)O[C@H]2O[C@@H]1Cn1ccc(=O)[nH]c1=O` [Compound 6, 1-(5-Deoxy-3-O-dodecyl-1,2-O-isopropylidene-α-D-xylofuranos-5-yl)uracil], the inhibition at 50 µM in test [1] turned out to be 28.5%; in test [2], 22.5%.
In the same order, the values of `CCCCCCCCCCCCO[C@@H]1[C@H]2OC(C)(C)O[C@H]2O[C@@H]1Cn1c(=O)cc[nH]c1=O` [Compound 7, 3-(5-deoxy-3-O-dodecyl-1,2-O-isopropylidene-α-D-xylofuranos-5-yl)uracil] are 7.5% and 17.8%.
On to `CCCCCCCCCCCCO[C@@H]1[C@H]2OC(C)(C)O[C@H]2O[C@@H]1Cn1ccc(=O)n(C[C@H]2O[C@@H]3OC(C)(C)O[C@@H]3[C@H]2OCCCCCCCCCCCC)c1=O` [Compound 8, 1,3-bis-(5-deoxy-3-O-dodecyl-1,2-O-isopropylidene-α-D-xylofuranos-5-yl)uracil], for which the inhibition at 50 µM in test [1] is 32.8%; in test [2] it was 26.1%.
The term Ki denotes the equilibrium dissociation constant of an inhibitor or competing ligand from its target. As for `CCCCCCCCCCCCO[C@@H]1[C@H]2OC(C)(C)O[C@H]2O[C@@H]1COc1ccnc(OC[C@H]2O[C@@H]3OC(C)(C)O[C@@H]3[C@H]2OCCCCCCCCCCCC)n1` [Compound 9, 2,4-bis-O-(5-deoxy-3-O-dodecyl-1,2-O-isopropylidene-α-D-xylofuranos-5-yl)uracil], the inhibition at 50 µM in test [1] came out at 29.8%. In addition, in test [2], the “Ki′ (uncompetitive inhibition), AChE” value is 103.0 µM and 103.0 ± 4.3 µM; the “type of inhibition, AChE” value is on record as “mixed-type”; the inhibition at 50 µM stood at 40.3%. In addition, the Ki in test [2] (read-out: Ki (competitive inhibition), AChE) stood at 17.5 ± 0.7 µM.
Turning to `CCCCCCCCCCCCO[C@H]1[C@@H](Cn2c(=O)c3c(ncn3C)n(C)c2=O)OC(O)[C@@H]1O` (stereo partly drawn) [Compound 10, 1-(5-Deoxy-3-O-dodecyl-α,β-D-xylofuranos-5-yl)-3,7-dimethyl-3,7-dihydro-1H-purine-2,6-dione], the inhibition at 50 µM in test [1] was found to be 22.9%; in test [2], 2.6%.
`CCCCCCCCCCCCO[C@H]1[C@@H](Cn2c(=O)c3c(ncn3C)n(C)c2=O)OC(NS(C)(=O)=O)[C@@H]1OC(C)=O` (stereo partly drawn) [Compound 12, N-[2-O-Acetyl-1,5-dideoxy-5-(3,7-dimethyl-3,7-dihydro-2,6-dioxo-1H-purin-1-yl)-3-O-dodecyl-α,β-D-xylofuranos-1-yl]methanesulfonamide]: in test [1], the “inhibitory effect on BChE (in words)” value was “devoid of any inhibitory effects” and testing at 50 µM gave an inhibition of 4.6%. Moreover, in test [2], the “inhibitory effect on AChE (in words)” value is on record as “devoid of any inhibitory effects” and the inhibition at 50 µM was found to be 1%.
`CCCCCCCCCCCCO[C@@H]1[C@@H](OC(C)=O)[C@@H](N=[N+]=[N-])O[C@@H]1Cn1c(=O)c2c(ncn2C)n(C)c1=O` [Compound 13-α, 1-(2-O-Acetyl-1-azido-1,5-dideoxy-3-O-dodecyl-α-D-xylofuranos-5-yl)-3,7-dimethyl-3,7-dihydro-1H-purine-2,6-dione]: in test [1], the “inhibitory effect on BChE (in words)” value is on record as “devoid of any inhibitory effects” and 50 µM produced 35% inhibition. Moreover, in test [2], the “inhibitory effect on AChE (in words)” value is given as “devoid of any inhibitory effects” and the inhibition at 50 µM stood at 18.9%.
Regarding `COc1ccc2c3c1O[C@H]1C[C@@H](O)C=C[C@@]31CCN(C)C2` [Galantamine hydrobromide, galantamine hydrobromide, reference compound], in test [1], the “type of inhibition, BChE” value was “competitive” and 50 µM produced 86.3% inhibition.
On to “N-[2,4-Di-O-acetyl-1,6-dideoxy-6-(3,7-dimethyl-3,7-dihydro-2,6-dioxo-1H-purin-1-yl)-3-O-dodecyl-α,β-D-glucopyranos-1-yl]methanesulfonamide [Compound 22]”, for which, in test [1] (50 µM), the “% Inhibition of BChE” value was 53% and 52.6%. For the same molecule, the “% Inhibition of AChE” value in test [2] was 28.3%.
